Consider 3 compounds from patent publication EP2073012A1, “Method for the isolation and identification of ADP-ribosylated molecules” (Fondazione Telethon, priority 2007, dated 2009).

One experiment has as its system BAL9. The note with it: cited from earlier work.
The next experiment deals with T1, Af1521 (Archaeoglobus fulgidus, UniProt O28751).
T1 sequence (O28751 1-192): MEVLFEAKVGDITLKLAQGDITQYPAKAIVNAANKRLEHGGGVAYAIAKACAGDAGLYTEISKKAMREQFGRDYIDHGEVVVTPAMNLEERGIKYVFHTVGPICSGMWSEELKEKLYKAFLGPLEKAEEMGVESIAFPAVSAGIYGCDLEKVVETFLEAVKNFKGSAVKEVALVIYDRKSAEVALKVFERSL
The note with it: cited from earlier work.

For a further experiment, the target named is T2, His6-mAf1521 (Archaeoglobus fulgidus, UniProt O28751).
T2 construct: made in house
T2 sequence (O28751 1-192): T1 sequence (O28751 1-192)
Description: Pull-down displacement assay: free ADP-ribose added after pull-down of [32P]-ADP-ribosylated β subunit by resin-bound His6-mAf1521. The experiment is classed as binding. As for the experimental part: Samples (10 µg plasma membranes) were incubated with 50 µl ADP-ribosylation buffer (50 mM potassium phosphate buffer (PFB), pH 7.4, 5 mM MgCl2, 4 mM dithiothreitol (DTT), 10 µM GTPγS, 700 µM β-NAD^+ and 4.5 µCi [^32P]-NAD (specific activity: 1,000 Ci/mmol)) at 37 °C for 60 min, unless otherwise specified. Under these conditions, 10% of the total β was mono-ADP-ribosylated; to obtain maximal modification (80%-100% of total β mono-ADP-ribosylated), the incubation was prolonged to 12 h at 30 °C. The in-vitro PT-catalyzed ADP-ribosylation was performed as previously described^34, using either total membranes or purified proteins (β-action or SLC25A5; Sigma and Abnova Corporation, respectively). […]
Plasma membranes (10 µg for each sample) were ADP-ribosylated as described above, washed with 50 mM PFB, pH 7.4, to remove unbound NAD, and then centrifuged at 16.000x g for 15 min at 4 °C. […] Then the resin was washed three times with RIPA buffer plus 10 mM imidazole, and finally both the washed resin and the unbound fraction (one-eight of the total volume) were diluted in 50 µl Laemmli buffer, boiled and analysed by 10% SDS-PAGE. […] The gels underwent colloidal Coomassie blue (blue code, Pierce) or silver staining, and the bands of interest were analysed by MALDI-TOF-MS. […]

Some results are limits rather than exact numbers.

Consider `NC(=O)c1ccc[n+]([C@@H]2O[C@H](COP(=O)([O-])OP(=O)(O)OC[C@H]3O[C@@H](n4cnc5c(N)ncnc54)[C@H](O)[C@@H]3O)[C@@H](O)[C@H]2O)c1` [NAD], for which the “fold lower affinity than free ADP-ribose” value in the experiment on BAL9 and on Af1521 was > 1000 fold each time.

On to `Nc1ncnc2c1ncn2[C@@H]1O[C@H](CO)[C@@H](O)[C@H]1O` [adenosine], for which the “fold lower affinity than free ADP-ribose” value in the experiment with BAL9 and on Af1521 was > 1000 fold throughout.

As to ADP-ribose, the “excess of ADP-ribose able to displace the immobilized ADP-ribosylated β subunit from the His6-mAf1521-resin complex” value at His6-mAf1521 (molar excess over bound β subunit) is on record as ~100 fold. For the same compound, at His6-mAf1521 (∼400 pmol ADP-ribose against ∼4 pmol bound β subunit), the “ADP-ribose concentration to displace all of the His6-mAf1521-bound [32P]-ADP-ribosylated β subunit” value worked out at 100 µM.
